Measured values from publication PMC3798429, “Exploring the Trypanosoma brucei Hsp83 Potential as a Target for Structure Guided Drug Design” (PLoS Neglected Tropical Diseases, 2013).
Values joined by “and” are separate entries in the source; they are usually repeats but may differ in a detail not shown here. Equal values may be shown once. Read-outs that look alike come from different tables or passages of the source. Marks after values point to notes of the source that are not given here.

Columns and labels:
TbHsp83 NTD [1] = biological target: T1, TbHsp83 NTD (Trypanosoma brucei brucei, UniProt P12861); type: binding; conditions: TbHsp83 NTD, inhibitor 25 µM, shifts above 2°C considered significant
Method: (§1) DSF screening was carried out using a LightCycler 480 Real Time PCR System (Roche Applied Science, Quebec, Canada). The NTDs from TbHsp83 as well as human Hsp90s α and β were buffered in 100 mM hepes pH 7.5, 150 mM NaCl and assayed in a 384-well format. The final concentration of the protein sample was optimized between 0.05 and 0.2 mg/ml for each NTD (concentration selected based on pre-testing results to avoid saturation of the fluorescence detector). […] The recorded fluorescence reads were fitted to the Boltzmann sigmoid function using Bioactive software (Harbinger Biotechnology and Engineering Corp., Ontario, Canada). The inflection point of each fitted curve is defined as the melting temperature (T m). […] Thermal shifts above 2°C were considered significant.

TbHsp83 NTD [2] = type: binding; conditions: DSF comparison of TbHsp83, Hsp90α and Hsp90β
Method: as §1

Human Hsp90α = system: T2, Human Hsp90α; assay: Differential scanning fluorimetry (DSF) thermal shift, human Hsp90α NTD; type: binding; conditions: inhibitor 25 µM
T2 construct: The NTDs from TbHsp83 as well as human Hsp90s α and β
Method: as §1

Human Hsp90β [3] = system: T3, Human Hsp90β; assay: Differential scanning fluorimetry (DSF) thermal shift, human Hsp90β NTD; type: binding; conditions: inhibitor 25 µM
T3 construct: The NTDs from TbHsp83 as well as human Hsp90s α and β
Method: as §1

Trypanosoma brucei = system: Trypanosoma brucei; parameters: method as in PMID 23630365; conditions: cited from earlier work
Human TRAP-1 = conditions: read-out: K d (previous ITC measurements); cited from earlier work
Yeast Hsp83 = conditions: read-out: K d (previous ITC measurements); cited from earlier work
T. brucei 427 = assay: Parasite growth inhibition assay; type: cell-based; conditions: Trypanosoma brucei
Method: Assay conditions for T. brucei 427 cell based assay were followed as previously reported in the literature.
Several of the compounds characterized using DSF and ITC assays were evaluated for their ability to kill T. brucei in a continuous in vitro culture system.

Human Hsp90β [4] = biological target: T3, Human Hsp90β; conditions: read-out: K d (previous ITC measurements); cited from earlier work
TbHsp83 NTD [5] = biological target: T1, TbHsp83 NTD; assay: biochemical; type: binding
Plasmodium = system: Plasmodium; parameters: method as in PMID 12584193; conditions: cited from earlier work
[6] = blood stream stage T. brucei 427, in vitro culture, read-out: EC50
[7] = ITC, 20°C, TbHsp83 NTD, read-out: K d

T1 sequence (P12861 1-213): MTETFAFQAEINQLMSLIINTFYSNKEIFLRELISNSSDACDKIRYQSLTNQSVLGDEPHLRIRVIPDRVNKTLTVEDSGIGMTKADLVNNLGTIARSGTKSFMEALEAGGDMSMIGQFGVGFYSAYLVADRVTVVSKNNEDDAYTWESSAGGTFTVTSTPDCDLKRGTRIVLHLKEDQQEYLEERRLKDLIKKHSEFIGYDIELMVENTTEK

| Compound | ΔT m (TbHsp83 NTD [1]) [°C] | ΔT m (Human Hsp90α) | ΔT m (Human Hsp90β [3]) | Kd (TbHsp83 NTD [5]; [7]) | further results |
| --- | --- | --- | --- | --- | --- |
| C[C@@H]1C[C@H]2O[C@@H]2/C=C\C=C\C(=O)Cc2c(Cl)c(O)cc(O)c2C(=O)O1 [Radicicol] | 6.5 | 18.8 °C | 15.6 °C |  | binding preference TbHsp83 vs human Hsp90 (TbHsp83 NTD [2]): stronger affinity for human Hsp90; EC50 (Trypanosoma brucei): 70 nM; Kd (Human TRAP-1): 25 nM; Kd (Yeast Hsp83): 16 nM |
| AMPPSP |  |  |  |  | Kd (Human TRAP-1): 109000 nM |
| CC(=O)c1ccc(N2C3CCC2CC(NC(=O)c2ccc(C(N)=O)c(NC4CCC(O)CC4)c2)C3)nc1 (stereo not drawn) [Compound 6, N4-[8-(5-acetylpyridin-2-yl)-8-azabicyclo[3.2.1]oct-3-endo-yl]-2-[(trans-4-hydroxycyclohexyl)amino]benzene-1,4-dicarboxamide] | 10.4 | 8.5 °C | 4.9 °C |  | EC50 (T. brucei 427; [6]): 220 nM |
| Nc1ncnc2c1ncn2[C@@H]1O[C@H](COP(=O)(O)OP(=O)(O)NP(=O)(O)O)[C@@H](O)[C@H]1O [AMPPNP] | 0.3 |  |  |  | Kd (Human Hsp90β [4]): 141000 nM; Kd (Yeast Hsp83): 111000 nM |
| CO[C@H]1/C=C\C=C(/C)C(=O)NC2=CC(=O)C(NCCN3CCCC3)=C(C[C@@H](C)C[C@H](OC)[C@H](O)[C@@H](C)/C=C(\C)[C@@H]1OC(N)=O)C2=O [Compound 17-AEP-GA, 17-AEP-GA] | 13.8 | 5.1 °C | 4.2 °C | 714 nM |  |
| C=CCNC1=C2C[C@@H](C)C[C@H](OC)[C@H](O)[C@@H](C)/C=C(\C)[C@H](OC(N)=O)[C@@H](OC)/C=C\C=C(/C)C(=O)NC(=CC1=O)C2=O [Compound 17-AAG-GA, 17-AAG-GA] | 10.7 | 3.1 °C | 1.6 °C |  | EC50 (Trypanosoma brucei): 38 nM |
| CCNC(=O)c1cc2c(-c3cc(OCCN(CC)CC)c(Cl)cc3Cl)nc(N)nc2s1 [Compound 3, 2-amino-4-[2,4-dichloro-5-(2-diethylaminoethoxy)phenyl]thiopheno[2,3-d]pyrimidine-6-carboxylic acid ethylamide] | 12.7 | 14.7 °C | 12.9 °C | 26 nM | EC50 (T. brucei 427): 210 nM |
| CO[C@H]1/C=C\C=C(/C)C(=O)NC2=CC(=O)C(NCCN(C)C)=C(C[C@@H](C)C[C@H](OC)[C@H](O)[C@@H](C)/C=C(\C)[C@@H]1OC(N)=O)C2=O [Compound 17-DAMG-GA, 17-DAMG-GA] | 11.7 | 5.5 °C | 3.9 °C |  | EC50 (Trypanosoma brucei): 3 nM; Kd (Human Hsp90β [4]): 350 nM |
| Oc1cc(O)c(-c2noc3ccc(NCCN4CCOCC4)cc23)cc1Cl [CAY10607] | 13.3 | 15.3 °C | 12.1 °C | 10 nM |  |
| CCNC(=O)c1noc(-c2cc(C(C)C)c(O)cc2O)c1-c1ccc(CN2CCOCC2)cc1 [NVP-AUY922] | 18.5 | 22.3 °C | 19.6 °C | 3 nM | binding preference TbHsp83 vs human Hsp90 (TbHsp83 NTD [2]): stronger affinity for human Hsp90 |
| CC1(C)CC(=O)c2c(C(F)(F)F)nn(-c3ccc(C(N)=O)c(N[C@H]4CC[C@H](O)CC4)c3)c2C1 [Compound 4, 4-[6,6-dimethyl-4-oxo-3-(trifluoromethyl)-4,5,6,7-tetrahydro-1H-indazol-1-yl]-2-[(trans-4-hydroxycyclohexyl)amino]benzamide] | 15.5 |  |  | 3 nM | Kd (TbHsp83 NTD [5]; ITC, read-out: K d): 2.8 nM; EC50 (T. brucei 427; [6]): 100 nM |
| CCc1cc(-c2n[nH]c(C)c2-c2ccc3c(c2)OCCO3)c(O)cc1O [CCT018159] | 8.01 | 12.1 °C | 7.5 °C | 4980 nM |  |
| COC1=C2C[C@@H](C)C[C@H](OC)[C@H](O)[C@@H](C)/C=C(\C)[C@H](OC(N)=O)[C@@H](OC)/C=C\C=C(/C)C(=O)NC(=CC1=O)C2=O [Geldanamycin] | 14.8 |  |  |  | Kd (TbHsp83 NTD [5]; K d, ITC, 20°C, TbHsp83 NTD): 1000 nM; EC50 (Trypanosoma brucei): 13 nM; Kd (Yeast Hsp83): 2900 nM; concentration inhibiting parasite growth (Plasmodium): sub-micromolar |
| CCC(C)n1c(Cc2cc(OC)ccc2OC)nc2c(N)nc(C)nc21 (stereo not shown) [Compound 2, 9-(sec-butyl)-8-(2,5-dimethoxybenzyl)-2-methyl-9H-purin-6-amine] | 0.8 | 1.2 °C | −0.5 °C | 9300 nM and 9260 nM | ΔT m (TbHsp83 NTD [1]; listed as compound 2): non-significant; K d (TbHsp83 NTD [5]; ITC, 20°C, TbHsp83 NTD): lowest affinity measured by ITC; EC50 (T. brucei 427; [6]): 13000 nM |
| CSCCNc1cc(-n2nc(C(F)(F)F)c3c2CC(C)(C)CC3=O)ccc1C(N)=O [Compound 5, 4-(6,6-dimethyl-4-oxo-3-(trifluoromethyl)-4,5,6,7-tetrahydro-1H-indazol-1-yl)-2-((2-(methylthio)ethyl)amino)benzamide] | 12.03 | 2.3 °C | 0.4 °C | 794 nM | binding preference TbHsp83 vs human Hsp90 (TbHsp83 NTD [2]): preferentially binds TbHsp83; binding preference TbHsp83 vs human Hsp90 (TbHsp83 NTD [2]; listed as compound 5): markedly stronger binding to TbHsp83; EC50 (T. brucei 427; [6]): 130 nM |
| Nc1ncnc2c1ncn2[C@@H]1O[C@H](COP(=O)(O)OP(=O)(O)O)[C@@H](O)[C@H]1O [ADP] | 0.1 | 0.3^a °C | 0.5^b °C |  | Kd (Human Hsp90β [4]): 15000 nM; Kd (Human TRAP-1): 35000 nM |
| COc1c(C)cnc(Cn2cnc3c(Cl)nc(N)nc32)c1C [Compound 1, 6-chloro-9-(4-methoxy-3,-dimethylpyridin-2-ylmethyl)-9H-purin-2-ylamine] | 10.5 |  | 8.7 °C |  | Kd (TbHsp83 NTD [5]; K d, ITC, 20°C, TbHsp83 NTD): 9 nM; EC50 (T. brucei 427; [6]): 310 nM |
| CO[C@H]1[C@@H](OC)C[C@H](C)[C@@H](OC)C2=CC(=O)C=C(NC(=O)/C(C)=C/C=C\[C@H](C)[C@@H](OC(N)=O)/C(C)=C/[C@@H]1C)C2=O [Macbecin I] | 16.9 | 10.2 °C | 8.6 °C |  | binding preference TbHsp83 vs human Hsp90 (TbHsp83 NTD [2]): markedly stronger binding to TbHsp83; fold higher affinity of T. brucei Hsp83 compared to K d reported for yeast counterpart (TbHsp83 NTD [5]; ITC K d vs yeast value of ref 45): 2.5 fold; Kd (TbHsp83 NTD [5]; K d, ITC, 20°C, TbHsp83 NTD): 93 nM; Kd (Yeast Hsp83): 240 nM |
